The text below walks through data of PubChem BioAssay AID1259407 (Chemical Carcinogenesis Research Information System (CCRIS), 2018).

For this data set, the system named is CCRIS mutagenicity, Ames/micronucleus/aberration tests. The data set is described as follows: CCRIS mutagenicity studies.
Setting [1] is: Test System: AMES SALMONELLA TYPHIMURIUM, Strain/Indicator: TA98, Metabolic Activation: NONE, Method: STANDARD PLATE.
Setting [2] is: Test System: AMES SALMONELLA TYPHIMURIUM, Strain/Indicator: TA98, Metabolic Activation: RAT, LIVER, S-9, AROCLOR 1254, Method: STANDARD PLATE.
[3] abbreviates: Test System: AMES SALMONELLA TYPHIMURIUM, Strain/Indicator: TA100, Metabolic Activation: NONE, Method: STANDARD PLATE.
Where [4] appears, read: Test System: AMES SALMONELLA TYPHIMURIUM, Strain/Indicator: TA100, Metabolic Activation: RAT, LIVER, S-9, AROCLOR 1254, Method: STANDARD PLATE.
The mark [5] stands for this setting: Test System: AMES SALMONELLA TYPHIMURIUM, Strain/Indicator: TA1535, Metabolic Activation: NONE, Method: STANDARD PLATE.

Active and inactive are the calls of the source. How the calls were made is not given here.

In the case of `O=C(O)C(Br)Br`, the mutagenic call (End Point: Ames Salmonella typhimurium, Test System: TA98, Metabolic Activation: Hamster, liver, S-9, Aroclor 1254, Method: Preincubation) was “inactive; negative”; the mutagenic call (End Point: Ames Salmonella typhimurium, Test System: TA100, Metabolic Activation: Hamster, liver, S-9, Aroclor 1254, Method: Preincubation) is “active; positive”; the mutagenic call (End Point: In vivo micronucleus, Test System: Peripheral blood erythrocytes, Species: Mouse, Strain/Sex: B6C3F1/Female, Route: Oral (drinking water)) was “inactive; negative (for increased frequencies of micronucleated normochromatic erythrocyte”; the mutagenic call (End Point: In vivo micronucleus, Test System: Peripheral blood erythrocytes, Species: Mouse, Strain/Sex: B6C3F1/Male, Route: Oral (drinking water)) is “inactive; positive (for increased frequencies of micronucleated normochromatic erythrocyte”; the mutagenic call (Test System: AMES SALMONELLA TYPHIMURIUM, Strain/Indicator: RSJ100, Metabolic Activation: NONE, Method: PREINCUBATION) was “inactive; negative”; the mutagenic call (Test System: AMES SALMONELLA TYPHIMURIUM, Strain/Indicator: RSJ100, Metabolic Activation: RAT LIVER S-9, Method: PREINCUBATION) is “inactive; negative”. Moreover, the mutagenic call was “active; positive” (Test System: AMES SALMONELLA TYPHIMURIUM, Strain/Indicator: TA98, Metabolic Activation: RAT LIVER S-9, Method: PREINCUBATION); “inactive; negative” (Test System: AMES SALMONELLA TYPHIMURIUM, Strain/Indicator: TA98, Metabolic Activation: RAT, LIVER, S-9, PHENOBARBITAL AND 5,6-BENZOFLAVONE, Method: PREINCUBATION); “active; positive” (Test System: AMES SALMONELLA TYPHIMURIUM, Strain/Indicator: TA100, Metabolic Activation: NONE, Method: FLUCTUATION TEST); “active; positive” (Test System: AMES SALMONELLA TYPHIMURIUM, Strain/Indicator: TA100, Metabolic Activation: NONE, Method: PREINCUBATION); “active; positive” (Test System: AMES SALMONELLA TYPHIMURIUM, Strain/Indicator: TA100, Metabolic Activation: RAT LIVER S-9, Method: PREINCUBATION); “active; positive” (Test System: AMES SALMONELLA TYPHIMURIUM, Strain/Indicator: TA100, Metabolic Activation: RAT, LIVER, S-9, AROCLOR 1254, Method: FLUCTUATION TEST). Also, the mutagenic call (Test System: AMES SALMONELLA TYPHIMURIUM, Strain/Indicator: TA100, Metabolic Activation: RAT, LIVER, S-9, PHENOBARBITAL AND 5,6-BENZOFLAVONE, Method: PREINCUBATION) is “active; positive”; the mutagenic call (Test System: Ames Salmonella typhimurium, Strain/Indicator: TA98, Metabolic Activation: None, Method: Preincubation) is “inactive; negative”; the mutagenic call (Test System: Ames Salmonella typhimurium, Strain/Indicator: TA98, Metabolic Activation: Rat, liver, S-9, Aroclor 1254, Method: Preincubation) is “inactive; negative”; the mutagenic call (Test System: Ames Salmonella typhimurium, Strain/Indicator: TA100, Metabolic Activation: None, Method: Preincubation) is “active; positive”; the mutagenic call (Test System: Ames Salmonella typhimurium, Strain/Indicator: TA100, Metabolic Activation: Rat, liver, S-9, Aroclor 1254, Method: Preincubation) is “active; positive”.

Regarding `O=c1cccc2cc(O)c(O)c(O)c2c1O`, the mutagenic call (Test System: AMES SALMONELLA TYPHIMURIUM, Strain/Indicator: TA2638, Metabolic Activation: S-9, Method: STANDARD PLATE) was “inactive; negative”.

For `Oc1cc(O)c2c(c1)O[C@H](c1ccc(O)c(O)c1)[C@H](O)C2`, the mutagenic call was “inactive; negative” (Test System: Ames Salmonella typhimurium, Strain/Indicator: TA102, Metabolic Activation: None, Method: Preincubation) and “inactive; negative” (Test System: Ames Salmonella typhimurium, Strain/Indicator: TA102, Metabolic Activation: Rat, Liver, S-9, Aroclor 1254 in 0.154 M KCl, Method: Preincubation).

As for `CC1=CCC(=O)O1`, the mutagenic call is “inactive; negative” under setting [1], “inactive; negative” under setting [2], “inactive; negative” under setting [3] and “inactive; negative” under setting [4].

Regarding `O=c1c2c(c3c(ccc4ccc[nH]c43)c1O)O2`, the mutagenic call under setting [3] is “active; positive”.

Consider `CCOP(=S)(OCC)SCCSCC`, for which the mutagenic call is “active; positive at 24 and 48 hr compared with the concurrent control, but equivocal com” (End Point: In vivo micronucleus, Test System: Micronucleated polychromatic erythrocytes, Species: Mouse, Strain/Sex: Hsd/Win: NMRI/Male and female, Route: Intraperitoneal); “active; positive” under setting [5]; “active; positive” (Test System: AMES SALMONELLA TYPHIMURIUM, Strain/Indicator: TA1535, Metabolic Activation: S-9 MIX, Method: STANDARD PLATE); “inactive; negative” (Test System: E. coli polA test, Strain/Indicator: (K12)p3478/W3110, Metabolic Activation: None, Method: Plate test with 24 hr exposure); “inactive; negative” (Test System: E. coli polA test, Strain/Indicator: (K12)p3478/W3110, Metabolic Activation: S-9, Method: Plate test with 24 hr exposure); “active; positive” (Test System: UDS HUMAN FIBROBLASTS, Strain/Indicator: THY INCORP (NON-S-PHASE), Metabolic Activation: NONE, Method: LIQUID SCINTILLATION COUNTING).

On to `CCCCCCCCSCn1cc[n+](C)c1`, for which the mutagenic call was “inactive; negative” under setting [1]; “inactive; negative” under setting [2]; “inactive; negative” under setting [3]; “inactive; negative” under setting [4]; “inactive; negative” under setting [5]; “inactive; negative” (Test System: AMES SALMONELLA TYPHIMURIUM, Strain/Indicator: TA1535, Metabolic Activation: RAT, LIVER, S-9, AROCLOR 1254, Method: STANDARD PLATE). Besides, the mutagenic call (Test System: AMES SALMONELLA TYPHIMURIUM, Strain/Indicator: TA1537, Metabolic Activation: NONE, Method: STANDARD PLATE) is “inactive; negative”; the mutagenic call (Test System: AMES SALMONELLA TYPHIMURIUM, Strain/Indicator: TA1537, Metabolic Activation: RAT, LIVER, S-9, AROCLOR 1254, Method: STANDARD PLATE) was “inactive; negative”; the mutagenic call (Test System: AMES SALMONELLA TYPHIMURIUM, Strain/Indicator: TA1538, Metabolic Activation: NONE, Method: STANDARD PLATE) is “inactive; negative”; the mutagenic call (Test System: AMES SALMONELLA TYPHIMURIUM, Strain/Indicator: TA1538, Metabolic Activation: RAT, LIVER, S-9, AROCLOR 1254, Method: STANDARD PLATE) is “inactive; negative”.

On to `C=C(C)C1Cc2c(cc(O)c3c(=O)c4ccccc4n(C)c23)O1` (centres undefined), for which the mutagenic call by setting is: under setting [1], “inactive; negative”; (Test System: AMES SALMONELLA TYPHIMURIUM, Strain/Indicator: TA98, Metabolic Activation: RAT, LIVER, S-9, 3-METHYLCHOLANTHRENE, Method: STANDARD PLATE) “active; positive”; (Test System: AMES SALMONELLA TYPHIMURIUM, Strain/Indicator: TA98, Metabolic Activation: RAT, LIVER, S-9, PHENOBARBITAL, Method: STANDARD PLATE) “active; positive”; (Test System: AMES SALMONELLA TYPHIMURIUM, Strain/Indicator: TA98, Metabolic Activation: RAT, LIVER, S-9, Method: STANDARD PLATE) “active; positive”; under setting [3], “inactive; negative”; (Test System: AMES SALMONELLA TYPHIMURIUM, Strain/Indicator: TA100, Metabolic Activation: RAT, LIVER, S-9, 3-METHYLCHOLANTHRENE, Method: STANDARD PLATE) “active; positive”. Besides, the mutagenic call (Test System: AMES SALMONELLA TYPHIMURIUM, Strain/Indicator: TA100, Metabolic Activation: RAT, LIVER, S-9, PHENOBARBITAL, Method: STANDARD PLATE) is “active; positive” and the mutagenic call (Test System: AMES SALMONELLA TYPHIMURIUM, Strain/Indicator: TA100, Metabolic Activation: RAT, LIVER, S-9, Method: STANDARD PLATE) is “active; positive”.
